We go through 20 compounds from US6747023B1 (Daiichi Pharmaceutical Co., Ltd., priority 1998, dated 2004).

Counter-ions that a name gives are not always drawn. Like-named read-outs stand apart in the source and are kept apart here.

The target of one data set is T1, human FXa (Homo sapiens, UniProt P00742).
T1 construct: purchased Cosmobio-ERL HFXa-1011
Kind of data set: Measurement of FXa inhibitory action (IC50). In kind it is biochemical. The protocol: Measurement of FXa Inhibitory Action (IC50)
From the below-described equation, an inhibitory ratio % of each sample was determined.
(§1) Inhibitory ratio (%)=(1−OD of sample÷OD of control)×100

In another data set the target is T2, human thrombin (Homo sapiens, UniProt P00734).
T2 construct: carries out limited proteolysis of prothrombin, thereby forming thrombin; purchased Sigma Chemical
Kind of data set: Measurement of thrombin inhibitory action (IC50). Type of data set: biochemical. As to the method:
Measurement of Thrombin Inhibitory Action (IC50)
In a 96-well microtiter plate, 10 μl of a sample solution, 40 μl of a 100 mM tris.200 mM sodium chloride 0.2% BSA (pH: 7.4) buffer and 10 μl of 4 U/ml human thrombin (Sigma Chemical, dissolved in and diluted with a measuring buffer) were poured in portions, followed by the addition of 40 μl of 500 μM S2266 (product of Chromogenix). An increase (mOD/min) in the absorbance at 405 nm was measured at room temperature. From the below-described equation, an inhibitory ratio % of each sample was determined. On a logarithmic probability paper, the final concentration of the sample and inhibitory ratio % were plotted along the abscissa and the ordinate, respectively, whereby a 50% inhibitory concentration (IC50) was found.
as §1

Data set [1] deals with prothrombin time of the plasma. Kind of data set: Test of oral administration: coagulation extending action (prothrombin time). In kind it is in vivo, Wistar male rat. To be noted: rat, oral administration of 30 mg/kg. As to the method:
(§2) A sample was dissolved or suspended in a 0.5% (w/v) methyl cellulose solution and the resulting solution or suspension was orally administered (10 ml/kg) to a 8 to 11 week-old rat (Wistar male rat (Nippon SLC Co., Ltd.)) which had been fasted overnight. After administration of the sample, the blood to which 1/10 part by weight of 3.13% (w/v) sodium citrate had been added was collected from the cervical vein under anesthesia with halothane. The rat was awakened except during the blood collection. Feeding was re-started 6 hours after the blood collection. From each blood sample, the plasma was separated by centrifugal separation and anti-FXa activity in the blood and prothrombin time extending action were measured.
To 20 μl of the plasma, 40 μl of cynplastin (Organon Teknika/USA) was added and the coagulation time was measured. The ratio of the prothrombin time after the administration of the sample relative to the prothrombin time before the administration of the sample was designated as an index of the coagulation extending action.

The next data set has as its target human Factor Xa (Homo sapiens, UniProt P00742). As to the kind of experiment: Test of oral administration: anti-FXa activity in the plasma. Type of data set: in vivo, Wistar male rat. Conditions: rat, one hour after the oral administration of 30 mg/kg. The protocol: as §2
In a 96-well plate, 5 μl of the plasma was poured in portions, followed by the addition of 55 μl of a 8:1:2 mixture of 100 mM tris.200 mM sodium chloride.0.2% BSA (pH 7.4) buffer, water and 0.1 U/ml human Factor Xa solution (dissolved in and diluted with a measuring buffer) and 40 μl of 750 μM S-2222. After stirring for 10 seconds in a plate mixer, an increase (mOD/min) of the absorbance at 405 nm was measured at room temperature. The inhibitory ratio was calculated as follows:
An inhibitory ratio (%)=(1−OD of sample÷OD of control on average relative to blood-collecting time of sample)×100

Where [2] appears, read: 0.05 U/ml human FXa, substrate S2222, absorbance at 405 nm, room temperature, read-out: Concentration (nM) of the sample at which 50% of Fxa activity is inhibited.
The mark [3] stands for this setting: 4 U/ml human thrombin, substrate S2266, absorbance at 405 nm, room temperature, read-out: Concentration (nM) of the sample at which 50% of thrombin activity is inhibited.

T1 sequence (P00742 235-488 limits assumed): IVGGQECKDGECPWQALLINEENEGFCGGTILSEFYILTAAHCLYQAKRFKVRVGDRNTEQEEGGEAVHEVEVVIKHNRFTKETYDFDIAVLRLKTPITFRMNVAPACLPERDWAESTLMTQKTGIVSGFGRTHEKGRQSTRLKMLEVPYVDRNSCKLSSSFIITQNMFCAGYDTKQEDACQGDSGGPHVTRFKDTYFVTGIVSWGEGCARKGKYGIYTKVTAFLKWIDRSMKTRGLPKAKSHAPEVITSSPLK
T1 sequence (P00742 41-179 partner limits assumed): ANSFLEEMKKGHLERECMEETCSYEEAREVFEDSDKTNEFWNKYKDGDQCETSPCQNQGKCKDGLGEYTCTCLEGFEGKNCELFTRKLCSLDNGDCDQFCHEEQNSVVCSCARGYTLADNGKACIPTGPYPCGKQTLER
human Factor Xa, sequence (P00742 235-488 limits assumed): as the sequence (P00742 235-488 limits assumed) above
human Factor Xa, sequence (P00742 41-179 partner limits assumed): as the sequence (P00742 41-179 partner limits assumed) above

Consider `O=C(c1ccc(-c2cccc[n+]2[O-])cc1)N1CCN(S(=O)(=O)c2cc3ccc(Cl)cc3s2)CC1` [Example A-117, 2-[4-[[4-[(6-Chlorobenzo[b]thien-2-yl)sulfonyl]piperazin-1-yl]carbonyl]phenyl]pyridine N-oxide], for which the figures for the IC50 on human FXa (setting [2]) and at human thrombin (setting [3]) were 10.5 nM and 4100 nM, respectively.

Take `O=C(c1ncc(-c2ccncc2)cn1)N1CCN(S(=O)(=O)c2cc3ccc(Cl)cc3s2)CC1` [Example A-132, 1-[(6-Chlorobenzothiophen-2-yl)sulfonyl]-4-[[5-(pyridin-4-yl)pyrimidin-2-yl]carbonyl]piperazine]: the IC50 at human FXa (setting [2]) is 5.6 nM; at human thrombin (setting [3]), over 100000 nM.

Take `O=C(c1ncc(-c2cc[n+]([O-])cc2)cn1)N1CCN(S(=O)(=O)c2cc3ccc(Cl)cc3s2)CC1` [Example A-133, 4-[2-[[4-[(6-Chlorobenzo[b]thien-2-yl)sulfonyl]piperazin-1-yl]carbonyl]pyrimidin-5-yl]pyridine N-oxide]: the IC50 on human FXa (setting [2]) came out at 10 nM; at human thrombin (setting [3]), 7700 nM. The like results for `O=C(c1cnc(-c2ccncc2)cn1)N1CCN(S(=O)(=O)c2cc3cc(Cl)ccc3[nH]2)CC1` [Example A-138, 1-[(5-Chloroindol-2-yl)sulfonyl]-4-[[5-(pyridin-4-yl)pyrazin-2-yl]carbonyl]piperazine] were, in that order, 5 nM and 5900 nM. With `O=C(c1ncc(-c2ccncc2)cn1)N1CCN(S(=O)(=O)c2cc3cc(Cl)ccc3[nH]2)CC1` [Example A-105, 1-[(5-Chloroindol-2-yl)sulfonyl]-4-[[5-(pyridin-4-yl)pyrimidin-2-yl]carbonyl]piperazine], the IC50 on human thrombin (setting [3]) stood at 19000 nM. As to `CN1Cc2ccc(C(=O)N3CCN(S(=O)(=O)c4cc5cc(Cl)ccc5[nH]4)CC3)cc2C1` (as salt: salt) [Example B-190, 1-[(5-Chloroindol-2-yl)sulfonyl]-4-[(2-methylisoindolin-5-yl)carbonyl]piperazine], the melting point is 175 to 180 °C (dec.). In the case of `O=C(c1cnc(-c2ccncc2)cn1)N1CCN(S(=O)(=O)c2ccc3cc(Cl)ccc3c2)CC1` [Example A-137, 1-[(6-Chloronaphthalen-2-yl)sulfonyl]-4-[[5-(pyridin-4-yl)pyrazin-2-yl]carbonyl]piperazine], the IC50 on human FXa (setting [2]) stood at 60 nM; on human thrombin (setting [3]), 4100 nM. The like results for `C#Cc1ccc2cc(S(=O)(=O)N3CCN(C(=O)c4ncc(-c5ccncc5)cn4)CC3)sc2c1` [Example A-216, 4-[[5-(Pyridin-4-yl)pyrimidin-2-yl]carbonyl]-1-[(6-ethynylbenzo[b]thien-2-yl)sulfonyl]piperazine] were, in that order, 15 nM and over 50000 nM. The like results for `O=C(c1ncc(-c2ccncc2)cn1)N1CCN(S(=O)(=O)c2ccc3cc(Cl)ccc3c2)CC1` [Example A-123, 1-[(6-Chloronaphthalen-2-yl)sulfonyl]-4-[[5-(pyridin-4-yl)pyrimidin-2-yl]carbonyl]piperazine] were, in that order, 23 nM and 16000 nM. The corresponding values for `O=C(c1ncc(-c2cc[n+]([O-])cc2)cn1)N1CCN(S(=O)(=O)c2cc3cc(Cl)ccc3[nH]2)CC1` [Example A-134, 4-[2-[[4-[(5-Chloroindol-2-yl)sulfonyl]piperazin-1-yl]carbonyl]pyrimidin-5-yl]pyridine N-oxide] are 4.6 nM and 10200 nM.

Consider `O=C(c1ccc(-c2cccc[n+]2[O-])cc1)N1CCN(S(=O)(=O)c2cc3cc(Cl)ccc3[nH]2)CC1` [Example A-109, 2-[4-[[4-[(5-Chloroindol-2-yl)sulfonyl]piperazin-1-yl]carbonyl]phenyl]pyridine N-oxide], for which the IC50 on human FXa (setting [2]) is 6.9 nM; on human thrombin (setting [3]) it was 1550 nM. As to `O=C(c1ccc2c(c1)CNC2)N1CCN(S(=O)(=O)c2cc3cc(Cl)ccc3[nH]2)CC1` [Example B-189, 1-[(5-Chloroindol-2-yl)sulfonyl]-4-[(isoindolin-5-yl)carbonyl]piperazine], the melting point was 196 to 199 °C (dec.). For the compound `C#Cc1ccc2[nH]c(S(=O)(=O)N3CCN(C(=O)c4ccc(-c5ccncc5)cc4)CC3)cc2c1` [Example A-103, 1-[(5-Ethynylindol-2-yl)sulfonyl]-4-[4-(pyridin-4-yl)benzoyl]piperazine], the IC50 was 27 nM on human FXa (setting [2]) and 2220 nM on human thrombin (setting [3]). `O=C(c1cnc(-c2cc[n+]([O-])cc2)cn1)N1CCN(S(=O)(=O)c2cc3cc(Cl)ccc3[nH]2)CC1` [Example A-140, 4-[5-[[4-[(5-Chloroindol-2-yl)sulfonyl]piperazin-1-yl]carbonyl]pyrazin-2-yl]pyridine N-oxide]: the IC50 on human FXa (setting [2]) worked out at 6.8 nM; at human thrombin (setting [3]) it was 1370 nM.

In the case of `Cl.O=C(C1CC=C(c2ccncc2)CC1)N1CCN(S(=O)(=O)c2ccc3cc(Cl)ccc3c2)CC1` (racemic) [Example A-60, 1-[(6-Chloronaphthalen-2-yl)sulfonyl]-4-[[(1RS)-4-(pyridin-4-yl)-3-cyclohexene]carbonyl]piperazine hydrochloride], the “extension of the prothrombin time (ratio after/before administration)” value in data set [1] stood at 1.18 times. In addition, the “anti-FXa activity in the plasma” value on human Factor Xa worked out at 70%.

In the case of `CN1CCc2nc(C(=O)N3CCN(S(=O)(=O)c4cc5cc(Cl)ccc5[nH]4)CC3)sc2C1` [Example B-54, hydrochloride], the IC50 was determined as 5 nM at human FXa (same test as Tables 1-6, read-out: FXa 50% inhibitory concentrations) and 1050 nM on human thrombin (same test as Tables 7-8, read-out: thrombin 50% inhibitory concentration). Turning to `NCc1cc(-c2ccc(C(=O)N3CCN(S(=O)(=O)c4ccc5cc(Cl)ccc5c4)CC3)cc2)ccn1` [Example A-155, 1-[4-(2-Aminomethylpyridin-4-yl)benzoyl]-4-[(6-chloronaphthalen-2-yl)sulfonyl]piperazine hydrochloride], the IC50 at human FXa (setting [2]) worked out at 28 nM. Still for that read-out and setting: as for `CN(C)C(=O)C[C@@H]1CN(S(=O)(=O)c2cc3ccc(Cl)cc3s2)C[C@H](CC(=O)N(C)C)N1C(=O)c1ncc(-c2cc[n+]([O-])cc2)cn1` [Example A-279, 4-[2-[[2,cis-6-Bis[(N,N-dimethylcarbamoyl)methyl]-4-[(6-chlorobenzo[b]thien-2-yl)sulfonyl]piperazin-1-yl]carbonyl]pyrimidin-5-yl]pyridine N-oxide], the figure is 10 nM. Same read-out and setting: as for `O=C(c1ccc(-c2ccnc(CO)c2)cc1)N1CCN(S(=O)(=O)c2ccc3cc(Cl)ccc3c2)CC1` [Example A-152, 1-[(6-Chloronaphthalen-2-yl)sulfonyl]-4-[4-(2-hydroxymethylpyridin-4-yl)benzoyl]piperazine], the figure is 38 nM; as for `O=C(CC1CN(S(=O)(=O)c2cc3ccc(Cl)cc3s2)CCN1C(=O)c1ncc(-c2cccc[n+]2[O-])cn1)NC1CC1` (stereo not drawn) [Example A-293, 2-[2-[[4-[(6-Chlorobenzo[b]thien-2-yl)sulfonyl]-2-[(N-cyclopropylcarbamoyl)methyl]piperazin-1-yl]carbonyl]pyrimidin-5-yl]pyridine N-oxide], 1.9 nM.
